Assay results taken from patent publication US11617726B2, “Method for preventing, treating, or ameliorating a microbial infection” (priority 2018, dated 2023).

Tested on: Acinetobacter baumannii isolates
Experiment: Antimicrobial susceptibility test, disc diffusion method (CLSI M100-S24)
Format: cell-based
Design: key to Inhibition zone: “NZ” indicated that no zone of inhibition was observed
Details: for Inhibition zone: disc diffusion
Procedure, shortened: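 Disc diffusion per CLSI M100-S24 on 33 MDR clinical A. baumannii isolates from burn wards; 0.5 McFarland inoculum swabbed onto Mueller-Hinton agar, incubated aerobically 35-37° C, 18-20 h. Zone diameters measured to nearest mm and categorized S/I/R by CLSI breakpoints.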

SMILES: C[C@H]1COc2c(N3CCN(C)CC3)c(F)cc3c(=O)c(C(=O)O)cn1c23 [LEV, Levofloxacin]
- susceptibility category (isolate AB1, LEV disc): S (Sensitive ≥17)
- Inhibition zone (isolate AB1): 30 mm
- susceptibility category (isolate AB2, LEV disc): S (Sensitive ≥17)
- Inhibition zone (isolate AB2): 30 mm
- susceptibility category (isolate AB3, LEV disc): S (Sensitive ≥17)
- Inhibition zone (isolate AB3): 29 mm
- susceptibility category (isolate AB4, LEV disc): S (Sensitive ≥17)
- Inhibition zone (isolate AB4): 30 mm
- susceptibility category (isolate AB5, LEV disc): S (Sensitive ≥17)
- Inhibition zone (isolate AB5): 19 mm
- susceptibility category (isolate AB6, LEV disc): S (Sensitive ≥17)
- Inhibition zone (isolate AB6): 21 mm
- susceptibility category (isolate AB7, LEV disc): I (Intermediate 14-16)
- Inhibition zone (isolate AB7): 14 mm
- susceptibility category (isolate AB8, LEV disc): I (Intermediate 14-16)
- Inhibition zone (isolate AB8): 15 mm
- susceptibility category (isolate AB9, LEV disc): S (Sensitive ≥17)
- Inhibition zone (isolate AB9): 28 mm
- susceptibility category (isolate AB10, LEV disc): I (Intermediate 14-16)
- Inhibition zone (isolate AB10): 14 mm
- susceptibility category (isolate AB11, LEV disc): R (Resistant ≤13)
- Inhibition zone (isolate AB11): 11 mm
- susceptibility category (isolate AB12, LEV disc): R (Resistant ≤13)
- Inhibition zone (isolate AB12): 10 mm
- susceptibility category (isolate AB13, LEV disc): R (Resistant ≤13)
- Inhibition zone (isolate AB13): 8 mm
- susceptibility category (isolate AB14, LEV disc): R (Resistant ≤13)
- Inhibition zone (isolate AB14): 11 mm
- susceptibility category (isolate AB15, LEV disc): I (Intermediate 14-16)
- Inhibition zone (isolate AB15): 15 mm
- susceptibility category (isolate AB16, LEV disc): R (Resistant ≤13)
- Inhibition zone (isolate AB16): NZ
- susceptibility category (isolate AB17, LEV disc): R (Resistant ≤13)
- Inhibition zone (isolate AB17): 11 mm
- susceptibility category (isolate AB18, LEV disc): R (Resistant ≤13)
- Inhibition zone (isolate AB18): 13 mm
- susceptibility category (isolate AB19, LEV disc): R (Resistant ≤13)
- Inhibition zone (isolate AB19): 11 mm
- susceptibility category (isolate AB20, LEV disc): R (Resistant ≤13)
- Inhibition zone (isolate AB20): 13 mm
- susceptibility category (isolate AB21, LEV disc): I (Intermediate 14-16)
- Inhibition zone (isolate AB21): 14 mm
- susceptibility category (isolate AB22, LEV disc): I (Intermediate 14-16)
- Inhibition zone (isolate AB22): 14 mm
- susceptibility category (isolate AB23, LEV disc): R (Resistant ≤13)
- Inhibition zone (isolate AB23): 11 mm
- susceptibility category (isolate AB24, LEV disc): R (Resistant ≤13)
- Inhibition zone (isolate AB24): 12 mm
- susceptibility category (isolate AB25, LEV disc): I (Intermediate 14-16)
- Inhibition zone (isolate AB25): 14 mm
- susceptibility category (isolate AB26, LEV disc): R (Resistant ≤13)
- Inhibition zone (isolate AB26): NZ
- susceptibility category (isolate AB27, LEV disc): R (Resistant ≤13)
- Inhibition zone (isolate AB27): 8 mm
- susceptibility category (isolate AB28, LEV disc): I (Intermediate 14-16)
- Inhibition zone (isolate AB28): 15 mm
- susceptibility category (isolate AB29, LEV disc): I (Intermediate 14-16)
- Inhibition zone (isolate AB29): 15 mm
- susceptibility category (isolate AB30, LEV disc): I (Intermediate 14-16)
- Inhibition zone (isolate AB30): 15 mm
- susceptibility category (isolate AB31, LEV disc): R (Resistant ≤13)
- Inhibition zone (isolate AB31): 10 mm
- susceptibility category (isolate AB32, LEV disc): S (Sensitive ≥17)
- Inhibition zone (isolate AB32): 18 mm
- susceptibility category (isolate AB33, LEV disc): S (Sensitive ≥17)
- Inhibition zone (isolate AB33): 30 mm

SMILES: CO/N=C(\C(=O)N[C@@H]1C(=O)N2C(C(=O)[O-])=C(C[N+]3(C)CCCC3)CS[C@H]12)c1csc(N)n1 [FEP, Cefepime]
- Inhibition zone (isolate AB1): 20 mm
- Inhibition zone (isolate AB2): 16 mm
- Inhibition zone (isolate AB3): 18 mm
- Inhibition zone (isolate AB4): 14 mm
- Inhibition zone (isolate AB5): 7 mm
- Inhibition zone (isolate AB6): 21 mm
- Inhibition zone (isolate AB7): NZ
- Inhibition zone (isolate AB8): NZ
- Inhibition zone (isolate AB9): 22 mm
- Inhibition zone (isolate AB10): 7 mm
- Inhibition zone (isolate AB11): NZ
- Inhibition zone (isolate AB12): NZ
- Inhibition zone (isolate AB13): NZ
- Inhibition zone (isolate AB14): NZ
- Inhibition zone (isolate AB15): 8 mm
- Inhibition zone (isolate AB16): 35 mm
- Inhibition zone (isolate AB17): 11 mm
- Inhibition zone (isolate AB18): NZ
- Inhibition zone (isolate AB19): NZ
- Inhibition zone (isolate AB20): NZ
- Inhibition zone (isolate AB21): NZ
- Inhibition zone (isolate AB22): NZ
- Inhibition zone (isolate AB23): NZ
- Inhibition zone (isolate AB24): 7 mm
- Inhibition zone (isolate AB25): 10 mm
- Inhibition zone (isolate AB26): 14 mm
- Inhibition zone (isolate AB27): 8 mm
- Inhibition zone (isolate AB28): NZ
- Inhibition zone (isolate AB29): NZ
- Inhibition zone (isolate AB30): NZ
- Inhibition zone (isolate AB31): NZ
- Inhibition zone (isolate AB32): NZ
- Inhibition zone (isolate AB33): 18 mm

SMILES: C[C@@H](O)[C@H]1C(=O)N2C(C(=O)O)=C(SCCN=CN)C[C@H]12 [IP, Imipenem]
- Inhibition zone (isolate AB1): NZ
- Inhibition zone (isolate AB2): NZ
- Inhibition zone (isolate AB3): NZ
- Inhibition zone (isolate AB4): NZ
- Inhibition zone (isolate AB5): 8 mm
- Inhibition zone (isolate AB6): 12 mm
- Inhibition zone (isolate AB7): NZ
- Inhibition zone (isolate AB8): 7 mm
- Inhibition zone (isolate AB9): NZ
- Inhibition zone (isolate AB10): NZ
- Inhibition zone (isolate AB11): NZ
- Inhibition zone (isolate AB12): 11 mm
- Inhibition zone (isolate AB13): 9 mm
- Inhibition zone (isolate AB14): 15 mm
- Inhibition zone (isolate AB15): NZ
- susceptibility category (isolate AB16, IP disc): S (Sensitive ≥22)
- Inhibition zone (isolate AB16): 34 mm
- Inhibition zone (isolate AB17): 15 mm
- Inhibition zone (isolate AB18): NZ
- Inhibition zone (isolate AB19): NZ
- Inhibition zone (isolate AB20): 15 mm
- Inhibition zone (isolate AB21): NZ
- Inhibition zone (isolate AB22): 15 mm
- Inhibition zone (isolate AB23): 20 mm
- Inhibition zone (isolate AB24): NZ
- susceptibility category (isolate AB25, IP disc): S (Sensitive ≥22)
- Inhibition zone (isolate AB25): 23 mm
- susceptibility category (isolate AB26, IP disc): S (Sensitive ≥22)
- Inhibition zone (isolate AB26): 22 mm
- Inhibition zone (isolate AB27): 9 mm
- Inhibition zone (isolate AB28): 8 mm
- Inhibition zone (isolate AB29): 9 mm
- Inhibition zone (isolate AB30): 9 mm
- Inhibition zone (isolate AB31): 9 mm
- Inhibition zone (isolate AB32): 18 mm
- Inhibition zone (isolate AB33): NZ

SMILES: NC[C@@H]1O[C@H](O[C@H]2[C@@H](O)[C@H](O[C@@H]3[C@@H](O)[C@H](N)C[C@H](N)[C@H]3O[C@H]3O[C@H](CN)[C@@H](O)[C@H](O)[C@H]3N)O[C@@H]2CO)[C@H](N)[C@@H](O)[C@@H]1O [NEO, Neomycin]
- Inhibition zone (isolate AB1): 23 mm
- Inhibition zone (isolate AB2): 20 mm
- Inhibition zone (isolate AB3): 22 mm
- Inhibition zone (isolate AB4): 27 mm
- Inhibition zone (isolate AB5): 10 mm
- Inhibition zone (isolate AB6): 14 mm
- Inhibition zone (isolate AB7): 12 mm
- Inhibition zone (isolate AB8): 11 mm
- Inhibition zone (isolate AB9): 20 mm
- Inhibition zone (isolate AB10): NZ
- Inhibition zone (isolate AB11): NZ
- Inhibition zone (isolate AB12): 15 mm
- Inhibition zone (isolate AB13): 9 mm
- Inhibition zone (isolate AB14): NZ
- Inhibition zone (isolate AB15): 13 mm
- Inhibition zone (isolate AB16): NZ
- Inhibition zone (isolate AB17): 20 mm
- Inhibition zone (isolate AB18): 15 mm
- Inhibition zone (isolate AB19): 13 mm
- Inhibition zone (isolate AB20): NZ
- Inhibition zone (isolate AB21): 13 mm
- Inhibition zone (isolate AB22): 7 mm
- Inhibition zone (isolate AB23): 10 mm
- Inhibition zone (isolate AB24): 14 mm
- Inhibition zone (isolate AB25): 8 mm
- Inhibition zone (isolate AB26): 20 mm
- Inhibition zone (isolate AB27): 9 mm
- Inhibition zone (isolate AB28): 15 mm
- Inhibition zone (isolate AB29): 15 mm
- Inhibition zone (isolate AB30): 15 mm
- Inhibition zone (isolate AB31): 8 mm
- Inhibition zone (isolate AB32): 10 mm
- Inhibition zone (isolate AB33): 20 mm
